Measured values: US4992581A, “Novel methods of manufacturing thromboxane A2 antagonists” (National Research Development Corporation, priority 1988, dated 1991)

What was measured:
[1] = test system: U-46619-induced platelet aggregation (rat platelet rich plasma); assay: Inhibition of U-46619-induced platelet aggregation in vitro in rat platelet rich plasma; type: cell-based; details: rat PRP
Method: Platelet rich plasma (PRP) was prepared from heparanized whole blood (5 units/ml) drawn from the abdominal aorta of ether anesthetized rats. PRP was prepared by centrifugation (Sorvall RC2B, DuPont, Wilmington, Del.) of the whole blood at 150×g for 10 min. Platelet poor plasma (PPP) was prepared by centrifugation at 1200×g for 20 min. Aliquots of PRP and PPP were used to standardize the aggregometer (Payton, Buffalo, N.Y., model 300B) with the recorder (Riken Denshi 2 channel recorder, Payton, model SP-H5P) for measurement of minimum and maximum light transmittance, respectively.
Platelet aggregation was measured as an increase in light transmittance. PRP (390 μl aliquot 5 μl compound vehicle) was preincubated for 1 min. at 37° C., with stirring at 900 rpm in the aggregometer. […] Amount of aggregation was measured by grids on the strip chart.
Compounds were dissolved in either ethanol (ETOH) or Na2 CO3 (0.1 M) and preincubated at the desired concentration in PRP for 1 min. at 37° C. with stirring. […] Dose response curves were generated and IC50 's calculated by linear regression.

washed human platelets = assay: Analysis of partial agonism (human washed platelets); type: cell-based; details: 5 and 10 min. incubation
Method: Sixty ml of blood were drawn into 1/10 volume of CCD (100 mM Na Citrate and 136 mM glucose, pH 6.5 with HCl) and PRP prepared as described above. PRP was placed on ice for 15 min. One half of the volume of CCD was added and recentrifuged. The platelet pellet was gently resuspended in 1/2 the original volume of PRP in a 0° C. modified Tangen-Hepes-BSA buffer (145 mM NaCl, 5 mM KCl, 0.05 mM CaCl2, 0.1 mM MgCl2, 11 mM glucose, 15 mM Hepes, 1 mg/ml bovine serum albumin, pH adjusted to 7.4 with NaOH). The resuspended platelets were incubated undisturbed at 37° C. for 30 min. After incubation a platelet count was determined and adjusted to 3×10^8 cells/ml with the Tangen-Hepes-BSA buffer.
425 μl of the washed human platelet suspension was incubated in the aggregometer in the presence of 16 mM CaCl2 (50 μl) and SC-46985 for 5 and 10 min. […] (In a study similar to (a) above, aliquots of human washed platelets were incubated with various concentrations of SC-46985 and U-46619 to determine dose-related inhibition of aggregation).

Compound | fold more potent in aqueous solution than in ethanol ([1]; Na Carbonate vs ETOH vehicle) | IC50 ([1]; Rattus norvegicus, Platelet, vehicle ETOH) | partial agonist activity (washed human platelets) | shape change or aggregation (washed human platelets; no U-46619)
CC(=NNC(=S)Nc1ccccc1)[C@@H]1[C@H]2CC[C@H](C2)[C@H]1C/C=C\CCCC(=O)O (relative stereo) [SC-44161, (±)7-[3α[[(Phenylamino)thioxomethyl]hydrazono]ethyl]1α,4α-bicyclo[2.2.1]hept-2β-yl]-5Z-heptenoic acid] | 5-10 fold | 260 nM | – | –
CC(=NNC(=S)Nc1ccccc1)[C@H]1[C@@H]2CC[C@@H](C2)[C@@H]1C/C=C\CCCC(=O)O [SC-46985] | – | – | lack of partial agonist activity | no evidence of shape change or aggregation
